From patent EP0052361A1, “Novel 16-membered macrolide compounds” (SANRAKU-OCEAN CO., LTD., priority 1980, dated 1982)
Values after ≈ are worked out from the molar mass of the structure shown. Like-named read-outs stand apart in the source and are kept apart here.

Experiments:
[1] = tested on: Staphylococcus aureus 209P; assay: MIC by tube dilution method in brain heart infusion broth; assay type: cell-based
Experimental: (§1) The minimum growth inhibitory concentrations (MIC) of the compounds (I) against various microorganisms were measured by a tube dilution method in a brain heart infusion broth (pH 7.5) as a medium.

[2] = tested on: Staphylococcus aureus MS9861; assay: as above; assay type: cell-based
Experimental: as §1

[3] = tested on: Bacillus subtilis NRRL B-558; assay: as above; assay type: cell-based
Experimental: as §1

[4] = tested on: Klebsiella pneumoniae PCI602; assay: as above; assay type: cell-based
Experimental: as §1

Sartina lutea PCI 1001 = assay: as above; assay type: cell-based
Experimental: as §1

[5] = tested on: Corynebacterium bovis 1810; assay: as above; assay type: cell-based
Experimental: as §1

[6] = tested on: Staphylococcus aureus MS10225; assay: as above; assay type: cell-based
Experimental: as §1

Escherichia coli NIHJ = assay: as above; assay type: cell-based
Experimental: as §1

[7] = tested on: Mycoplasma gallisepticum KP-13; assay: as above; assay type: cell-based; conditions: Mycoplasmoides gallisepticum
Experimental: as §1

[8] = tested on: Shigella dysenteriae JS 11910; assay: as above; assay type: cell-based; conditions: JS11910, pH 7.5, read-out: Minimum growth inhibitory concentration
Experimental: as §1

[9] = Stability on standing at room temperature; assay type: physicochemical; conditions: left to stand at room temperature for one month
Text: Stable even when left to stand at room temperature for one month.

[10] = parameters: species or system mice; conditions: mouse, in vivo, po
Experimental: • (2) Concentration in the blood • (2-1) The concentration of the antibiotic YT-3927 of formula (I-a) in the blood was measured by bioassay with […] lutea using mice. […] Then, periodically, the concentration of the antibiotic YT-3927 in the blood was measured. The peak of the blood concentration was noted 1.5 to 2 hours after the administration, and at the peak, the concentration was […]. In contrast, in the same experiment with tylosin, the peak was noted 1.5 to 2 hours later, but the concentration was less than one-fifth of that of the antibiotic YT-3927. • (2-2) The concentration of each of the antibiotic YT-3927 derivatives of formula (I-b) in the blood was measured by bioassay with […] lutea using mice. […] The concentration of the derivative (I-b) in the blood was periodically measured. The concentration of each of the compounds (I-b) 2 hours after the administration is shown in Table 3. [formula] • (3) Toxicity

[11] = Staphylococcus aureus, 209P, pH 7.5, read-out: Antimicrobial activity (MIC) Staphylococcus aureus 209P
[12] = MS9861, pH 7.5, read-out: Antimicrobial activity (MIC) Staphylococcus aureus MS9861
[13] = Bacillus subtilis, NRRLB558, pH 7.5, read-out: Antimicrobial activity (MIC) Bacillus subtilis NRRL B558
[14] = Klebsiella pneumoniae, PCI602, pH 7.5, read-out: Antimicrobial activity (MIC) Klebsiella pneumonae PCI602

SMILES | MIC [1, 11] | MIC [2, 12] | MIC [3, 13] | MIC [4, 14] | also measured
CCC1OC(=O)CC(O)C(C)C(OC2OC(C)C(OC3CC(C)(O)C(OC4CCCCO4)C(C)O3)C(N(C)C)C2O)C(CC=O)CC(C)C(=O)/C=C/C(C)=C/C1C (centres unmarked) | 1.6 µg/mL (≈ 1.98 µM) | 3.1 µg/mL (≈ 3.83 µM) | 0.4 µg/mL (≈ 0.494 µM) | 3.1 µg/mL (≈ 3.83 µM) | 
CCC1OC(=O)CC(O)C(C)C(OC2OC(C)C(OC3CC(C)(O)C(O)C(C)O3)C(N(C)C)C2O)C(CC=O)CC(C)C(=O)C=CC(C)=CC1C (centres unmarked) [Antibiotic YT-3927, antibiotic YT-3927] | 0.4 µg/mL (≈ 0.551 µM) | 3.1 µg/mL (≈ 4.27 µM) | 0.4 µg/mL (≈ 0.551 µM) | 3.1 µg/mL (≈ 4.27 µM) | MIC (Sartina lutea PCI 1001; pH 7.5, read-out: Minimum growth inhibitory concentration): < 0.2 µg/mL; MIC ([1]; Staphylococcus aureus, 209P, pH 7.5, read-out: Minimum growth inhibitory concentration): 0.39 µg/mL (≈ 0.537 µM); MIC ([5]; Corynebacterium bovis, 1810, pH 7.5, read-out: Minimum growth inhibitory concentration): 0.39 µg/mL (≈ 0.537 µM); MIC ([6]; Staphylococcus aureus, MS10225, pH 7.5, read-out: Minimum growth inhibitory concentration): 0.78 µg/mL (≈ 1.07 µM); MIC (Escherichia coli NIHJ; Escherichia coli, pH 7.5, read-out: Minimum growth inhibitory concentration): 25 µg/mL (≈ 34.4 µM); MIC ([7]; KP13, pH 7.5, read-out: Minimum growth inhibitory concentration): 0.02 µg/mL (≈ 0.0276 µM); MIC ([3]; Bacillus subtilis, NRRLB558, pH 7.5, read-out: Minimum growth inhibitory concentration): 0.39 µg/mL (≈ 0.537 µM); MIC ([4]; Klebsiella pneumoniae, PCI602, pH 7.5, read-out: Minimum growth inhibitory concentration): 3.12 µg/mL (≈ 4.3 µM); MIC [8]: 1.56 µg/mL (≈ 2.15 µM); Stability [9]: Stable
CCC1OC(=O)CC(OC(C)=O)C(C)C(OC2OC(C)C(OC3CC(C)(OC(C)=O)C(OC(C)=O)C(C)O3)C(N(C)C)C2O)C(CC=O)CC(C)C(=O)C=CC(C)=CC1C (centres unmarked) [R1=COCH3; R2=COCH3; YR3=COCH3, 3,3",4"-triacetyl YT-3927] | 1.6 µg/mL (≈ 1.88 µM) | 3.1 µg/mL (≈ 3.64 µM) | 0.4 µg/mL (≈ 0.469 µM) | 100 µg/mL (≈ 117 µM) | 
CCC1OC(=O)CC(O)C(C)C(OC2OC(C)C(OC3CC(C)(O)C(OC(=O)C(OC(C)=O)c4ccccc4)C(C)O3)C(N(C)C)C2O)C(CC=O)CC(C)C(=O)/C=C/C(C)=C/C1C (centres unmarked) | 0.8 µg/mL (≈ 0.887 µM) | 3.1 µg/mL (≈ 3.44 µM) | 0.8 µg/mL (≈ 0.887 µM) | 25 µg/mL (≈ 27.7 µM) | 
CCC1OC(=O)CC(O)C(C)C(OC2OC(C)C(OC3CC(C)(OC(C)=O)C(OC(=O)Cc4cccnc4)C(C)O3)C(N(C)C)C2O)C(CC=O)CC(C)C(=O)C=CC(C)=CC1C (centres unmarked) | 0.4 µg/mL (≈ 0.451 µM) | 1.6 µg/mL (≈ 1.8 µM) | < 0.2 µg/mL | 3.1 µg/mL (≈ 3.49 µM) | 
CCC1OC(=O)CC(O)C(C)C(OC2OC(C)C(OC3CC(C)(OC(C)=O)C(OC(=O)CC(C)C)C(C)O3)C(N(C)C)C2O)C(CC=O)CC(C)C(=O)C=CC(C)=CC1C (centres unmarked) [R1=H; R2=COCH3; YR3=COCH2CH(CH3)2] | 0.8 µg/mL (≈ 0.939 µM) | 1.6 µg/mL (≈ 1.88 µM) | 0.8 µg/mL (≈ 0.939 µM) | 25 µg/mL (≈ 29.3 µM) | 
CCC1OC(=O)CC(OC(C)=O)C(C)C(OC2OC(C)C(OC3CC(C)(O)C(OC(=O)CC(C)C)C(C)O3)C(N(C)C)C2O)C(CC=O)CC(C)C(=O)C=CC(C)=CC1C (centres unmarked) [R1=COCH3; R2=H; YR3=COCH2CH(CH3)2, 3-acetyl-4"-isovaleryl YT-3927] | 0.4 µg/mL (≈ 0.469 µM) | 6.3 µg/mL (≈ 7.39 µM) | 0.8 µg/mL (≈ 0.939 µM) | 25 µg/mL (≈ 29.3 µM) | 
CC[C@H]1OC(=O)C[C@@H](O)[C@H](C)[C@@H](O[C@@H]2O[C@H](C)[C@@H](O[C@H]3C[C@@](C)(O)[C@@H](O)[C@H](C)O3)[C@H](N(C)C)[C@H]2O)[C@@H](CC=O)C[C@@H](C)C(=O)/C=C/C(C)=C/[C@@H]1CO[C@@H]1O[C@H](C)[C@@H](O)[C@@H](OC)[C@H]1OC [Tylosin, reference compound] |  |  |  |  | MIC (Sartina lutea PCI 1001; Sartina lutea PCI 1001, brain heart infusion broth pH 7.5, read-out: Minimum growth inhibitory concentration): < 0.2 µg/mL; MIC ([1]; Staphylococcus aureus 209P, brain heart infusion broth pH 7.5, Table 2-1, read-out: Minimum growth inhibitory concentration): 0.78 µg/mL (≈ 0.851 µM); MIC ([1]; Staphylococcus aureus, 209P, Table 2-2, brain heart infusion broth pH 7.5, read-out: Antimicrobial activity (MIC) Staphylococcus aureus 209P): 0.8 µg/mL (≈ 0.873 µM); MIC ([5]; Corynebacterium bovis 1810, brain heart infusion broth pH 7.5, read-out: Minimum growth inhibitory concentration): < 0.2 µg/mL; MIC ([6]; Staphylococcus aureus MS10225 (resistant to tylosin), brain heart infusion broth pH 7.5, read-out: Minimum growth inhibitory concentration): 3.12 µg/mL (≈ 3.41 µM); MIC ([2]; MS9861, Table 2-2, brain heart infusion broth pH 7.5, read-out: Antimicrobial activity (MIC) Staphylococcus aureus MS9861): 6.3 µg/mL (≈ 6.88 µM); MIC (Escherichia coli NIHJ; Escherichia coli NIHJ, brain heart infusion broth pH 7.5, read-out: Minimum growth inhibitory concentration): 100 µg/mL (≈ 109 µM); MIC ([7]; KP13, Mycoplasma gallisepticum KP-13, brain heart infusion broth pH 7.5, read-out: Minimum growth inhibitory concentration): 0.02 µg/mL (≈ 0.0218 µM); MIC ([3]; Bacillus subtilis, NRRLB558, Table 2-2, brain heart infusion broth pH 7.5, read-out: Antimicrobial activity (MIC) Bacillus subtilis NRRL B558): 0.8 µg/mL (≈ 0.873 µM); MIC ([3]; NRRLB558, Bacillus subtilis NRRL B-558, brain heart infusion broth pH 7.5, Table 2-1, read-out: Minimum growth inhibitory concentration): 0.78 µg/mL (≈ 0.851 µM); MIC ([4]; Klebsiella pneumoniae PCI602, brain heart infusion broth pH 7.5, Table 2-1, read-out: Minimum growth inhibitory concentration): 25 µg/mL (≈ 27.3 µM); MIC ([4]; Klebsiella pneumoniae, PCI602, Table 2-2, brain heart infusion broth pH 7.5, read-out: Antimicrobial activity (MIC) Klebsiella pneumonae PCI602): 25 µg/mL (≈ 27.3 µM); MIC [8]: 25 µg/mL (≈ 27.3 µM); peak concentration in the blood as a fraction of that of the antibiotic YT-3927 [10]: less than one-fifth
CCC1OC(=O)CC(O)C(C)C(OC2OC(C)C(OC3CC(C)(OC(C)=O)C(OC(=O)C4CCCCC4)C(C)O3)C(N(C)C)C2O)C(CC=O)CC(C)C(=O)/C=C/C(C)=C/C1C (centres unmarked) | 1.6 µg/mL (≈ 1.82 µM) | 6.3 µg/mL (≈ 7.17 µM) | 0.4 µg/mL (≈ 0.456 µM) | > 100 µg/mL | 
